Experimental data published in patent publication US20200131227A1, “POLYPEPTIDE WITH TUMOUR BINDING ACTIVITY” (RUPRECHT-KARLS-UNIVERSITÄT HEIDELBERG, priority 2017, published 2020).
Where a SMILES comes first, the peptide text is derived from it. Bridges are numbered along the chain shown (N, C = ends).

Biological target: ITGαvβ6 (Homo sapiens, UniProt P06756+P18564)
Assay: Surface plasmon resonance assay (SPR), ITGαvβ6
Assay type: binding
Details: peptide immobilized, integrin as analyte, 1:1 Langmuir fit
Procedure: Assessment of the binding affinity was performed on a BiaCore X100 (GE Healthcare). To avoid denaturation of the heterodimer during amide activation ITGαvβ6 and ITGαvβ3, respectively, were used as analytes and SFITGv6 was immobilized at its N-terminus on a C1 sensor Chip (BR-1005-35, GE Healthcare) using a manual amine coupling protocol. Briefly, after activation of the sensor chip surface with a solution of EDC 0.4 M/NHS 0.1 M for 5 min a 100 μM peptide dissolved in HBS-EP running buffer (0.1 M HEPES, 30 mM EDTA, 1.5 M NaCl, 0.5% surfactant P20, pH 7.2) was immobilized with a contact time of 30 sec until a loading level of 18 response units (RU) was obtained. […] The SPR-sensogram data were evaluated with the BiaCore evaluation software. The dissociation constant (KD) was determined by a 1:1 Langmuir model fit of the SPR-sensograms.
Assessment of the binding affinity was performed on a BiaCore X100 (GE Healthcare). To avoid denaturation of the heterodimer during amide activation ITGαvβ6 and ITGαvβ3, respectively, were used as analytes and SFITGv6 was immobilized at its N-terminus on a C1 sensor Chip (BR-1005-35, GE Healthcare) using a manual amine coupling protocol. […] The SPR sensogram data were evaluated with the BiaCore evaluation software. The dissociation constant (KD) was determined by a 1:1 Langmuir model fit of the SPR sensograms.

CSCC[C@@H]1NC(=O)[C@H](CC(C)C)NC(=O)[C@H](CC(=O)O)NC(=O)CNC(=O)[C@H](CCCNC(=N)N)NC(=O)[C@H](Cc2ccccc2)NC(=O)[C@H]([C@@H](C)O)NC(=O)[C@@H](NC(=O)[C@H](CCCNC(=N)N)NC(=O)CN)CSSC[C@@H](C(=O)N[C@@H](Cc2ccc(O)cc2)C(=O)N2CCC[C@H]2C(=O)N[C@@H](CC(=O)O)C(=O)O)NC(=O)[C@H](CC(C)C)NC(=O)[C@H](CCC(N)=O)NC1=O [SFITGv6, NH2-G-R-C1-T-F-R-G-D-L-M-Q-L-C1-Y-P-D-COOH] (H-GRCTFRGDLMQLCYPD-OH; disulfide 3-13)
Kd: 14.8 ± 26 nM
